In patent US8097624B2, “Cycloalkyl derivatives of 3-hydroxy-4-pyridinones” (Apotex Inc., priority 2006, dated 2012):

How the values were obtained:
[1] = Metal complexation constants, Fe system (spectrophotometric titration; pM by Hyss); type: binding; details: for Log β3: Fe(III) overall complexation constant; for pFe^3+: total iron 10^−6 M, ligand 10^−5 M, pH 7.4, calculated from experimental pKa and complexation constants
Experimental: Compounds of this invention are designed to improve properties to known deferiprone analogues. […]. The definition of pFe^3+ used herein is the concentration of ferric ion in solution when the total amount of iron equals 10^−6 M and the concentration of ligand is 10^−5 M and pH is 7.4. It is calculated using experimental determined pKa and metal complexation constants using Hyperquad software (Version 2.1, Peter Gans, University of Leeds). The lowering of the pKa value of the C3 phenolic OH to less than 8.8 ensures that a higher pFe^3+ value when combined with a favorable complexation constant β3. The concept of complexation is detailed below.
The stepwise and overall complexation constants of a bidentate ligand such as 3-hydroxy-4-pyridinone follow: Fe(III)+Ligand→Fe[Ligand]1K1 Fe[Ligand]1+Ligand→Fe[Ligand]2K2 Fe[Ligand]2+Ligand→Fe[Ligand]3K3 Complexation constant β3=K1.K2.K3
Stepwise formation constants for M^n+-ligand systems were determined by spectrophotometric titration when metal complexes have a strong absorbance in the visible region due to ligand to metal charge transfer. In a typical experiment, the sample solution was prepared according to the following method: Apo6619 (10.7 mg) was weighed into an 80-ml beaker, followed by the addition of 0.1 M NaCl (50 ml). The mixture was sonicated for 10 minutes to give a clear colorless solution. Iron stock solution (atomic absorption standard, Aldrich, 496 μl, 8.93E-06 moles) was pipetted into the solution followed by the addition of 1.000 N NaOH (137 μl). The molar ratio between the total iron and the total Apo6619 was 1:5.4. The mixture was allowed to equilibrate at room temperature overnight. Nitrogen was allowed to bubble through the solution. 1.000 N Hydrochloric acid (3 ml) was then added to the solution to give pH 1.5. The solution was allowed to equilibrate at 22° C. for 3 hours.
A sipper system was used for the circulation of the sample solution between the beaker and the flow cell.
The sample solution was titrated against standard NaOH solutions at 22° C. to reach pH 6.89. After each addition of base the solution was allowed to equilibrate until a constant pH reading was reached. The pH and the UV-Vis spectrum were recorded for each measurement. For each measurement enough base was added so that there was a slight increase in the absorbance of the spectrum. The solution was titrated until there was no obvious increase in the spectra after several subsequent additions of base. Altogether 64 measurements were taken to finish the experiment.
[…]; pM^n+ is defined as −log [M(H2O)m]^n+ at physiological conditions, i.e.: pH 7.4, a ligand concentration of 10 μM, and a metal concentration of 1 μM.
To calculate pM^n+ for a MLn system, βn and pKa values are needed (βn are the formation constants for M^n++n L^− ? MLn; pKa are the equilibrium constants for L^−+n H^+ ? LHn^(n−1)+). The pM^n+ can be calculated by using Hyss software (Hyperquad Stimulation and Speciation software: HYSS2© 2000 Protonic Sofware).

Iron Overloaded Rat = experiment: Urinary and fecal iron excretion in the iron overloaded rat (first study, 450 μmoles/kg); type: in vivo; details: for urinary excretion of iron compared with deferiprone: 450 μmol/kg; for Fecal excretion (fecal iron, three days after chelator administration): 450 μmoles/kg oral, n=6, mean ± 1SD
Source text: The purpose of this study was to determine the effectiveness of Apo6619 and Apo6617 in promoting iron excretion in the iron overloaded rat model. Iron overloading was achieved by administration of iron dextran. Iron overloading using iron dextran has previously been used to assess chelator efficacy in mice (Kontoghiorghes G. J., Mol. Pharmacol. 1986, 30(6), 670-3; Bartfay et al., Cardiovasc Res. 1999, 43(4), 892-900), gerbils (Hershko et al., J. Lab Clin Med 2002, 139, 50-58), rats (Rakba N. Biochem Pharmacol. 1998, 55(11):1796-1806) and primates (Bergeron et. al., Blood, 1992, 79(7), 1882-1890). The iron loading regime used in this study results in a 20-fold increase in liver iron and a 3.8-fold increase in cardiac iron levels in male rats.
Six male Sprague-Dawley rats (weighing between 200-250 gms) were received from Charles River Laboratories, Montreal, Quebec, Canada. Rats were iron loaded by administration of iron dextran intraperitoneally at a dose of 100 mg/kg, twice weekly for a period of 4 weeks for a total of 8 injections (iron dextran, Sigma). The total volume of iron dextran injected was 1 mL/kg. Following an eight week period, rats were transferred to metabolic cages (one rat/cage). Once the animals were in the metabolic cages, excreta (both urine and feces) were collected daily for at least 3 day prior to and 4 days following the administration of each chelator. Each of the two chelators (Apo6619 and Apo6617) was administered consecutively. Chelators were administered as a single dose of 450 μmoles/kg by oral gavage at a dose volume of 2-4 mL/kg. The animals were weighed prior to dosing to enable exact dosage administration. Animals were checked daily (eyes, skin and movement) after chelator administration to determine if there were any obvious signs of ill health. Urine and feces were stored at −20° C. until analysis for total iron concentrations.
Rats were housed in a climate and light controlled environment (temperature: 19-25° C., relative humidity 40%, 12 hrs light/dark cycle) throughout the study. During the acclimatization, iron loading and equilibration phases, rats were placed in standard cages (2 rats/cage), fed standard rodent chow and given regular tap water ad libitum. Rats were transferred to metabolic cages (one rat/cage, Nalgene, Rochester N.Y.) after iron loading and equilibration. Three days before placement of the rats in the metabolic cages, rats were fed a low iron diet (3 ppm iron, Dyets Inc., Bethlehem, Pa.) and given Millipore water ad libitum. Rats were continued on the low iron diet for the duration of the study. The purpose of placing animals on a low iron diet was to reduce the background noise produced by dietary iron in the fecal samples.
A 50 mg/ml dosing solution of the chelator of formula I (570 mg) was first dissolved in a mixture of Millipore water (2 ml) and 6N HCl (0.4 ml) and brought up to the final volume (11.4 ml) with Millipore water (9 ml). Final pH of the solutions was adjusted to pH 4 with diluted sodium hydroxide solution. Solutions were protected from light and prepared freshly prior to each administration.
Urine and feces samples were shipped to the Trace Elements Laboratory at the London Health Sciences Center, London, Ontario, Canada for analysis of total iron concentration. Briefly, feces samples were prepared by adding water, heating to 98° C., vortexing and subsequently freeze drying. The samples were then mixed, and a representative subsample taken and digested with boiling HNO3 and H2O2. Feces samples were then diluted 1:100 with ultrapure water prior to running using a high resolution sector field ICP-MS (Finnigan Element 1). Urine samples were digested with 0.1% HNO3 and diluted 1/10 prior to running on the ICP-MS. Appropriate calibration curves using iron spiked samples and NIST traceable standards were used. Samples lying above or below the quantification range were re-run. […]

[2] = single oral dose 450 μmoles/kg, n=6

Row | Structure (SMILES) | Log β3 [1] | pFe^3+ [1] | urinary excretion of iron compared with deferiprone (Iron Overloaded Rat) | Fecal excretion (fecal iron, three days after chelator administration) (Iron Overloaded Rat) [µg/day/kg] | urinary iron excretion one day after chelator administration (Iron Overloaded Rat; [2]) [µg/day/kg] | urinary iron excretion second day after chelator administration (Iron Overloaded Rat; [2]) | PM Fe(III) ([1]; pH 7.4, ligand 10 μM, metal 1 μM) | urinary iron excretion third day after chelator administration (Iron Overloaded Rat; [2]) [µg/day/kg]
1 | Cc1cc(=O)c(O)c(C(=O)NC2CC2)n1C [Apo6617, 3-Hydroxy-1,6-dimethyl-4-oxo-1,4-dihydro-pyridine-2-carboxylic Acid Cyclopropylamide] | 33.6 | 20.8 | significantly higher than deferiprone | 4411 ± 790 | 164 ± 55 | 17 ± 13 µg/day/kg |  | 
2 | CNC(=O)c1c(O)c(=O)cc(C)n1C1CC1 [Apo6619, 1-Cyclopropyl-3-hydroxy-6-methyl-4-oxo-1,4-dihydro-pyridine-2-carboxylic Acid Methylamide] | 33.4 | 20.7 | significantly higher than deferiprone | 4154 ± 1245 | 240 ± 131 | 16 ± 5 µg/day/kg | 20.5 | 5 ± 1
3 | Cc1c(O)c(=O)ccn1C [deferiprone, 1,2-dimethyl-3-hydroxy-4-pyridinone, reference compound] | 36.3 | 19.7 |  | 2157 ± 169 | 80 ± 32 | returned to baseline |  | 
